Article PMC8931498 (Frontiers in Pharmacology, 2022)
Like-named read-outs stand apart in the source and are kept apart here.

Assays:
[1] = Plasma pharmacokinetics over 2 h after oral ibogaine in wild-type, Abcg2-/- and Abcb1a/1b;Abcg2-/- mice; type: in vivo; conditions: for Fold increase AUC0-2h: oral 10 mg/kg ibogaine; for Tmax / Cmax / AUC(0-t): mouse, plasma, po, 10 mg/kg; for AUC(0-t): read-out: AUC0-2h
Procedure: (§1) In each experiment, six to seven mice were used per strain. […] To reduce variation in absorption upon oral administration, mice were fasted for 2–3 h before dosing. […] At either 2 or 8 h after dosing, mice were deeply anesthetized with isoflurane (3%), followed by cardiac puncture to collect blood (at least 600 μL) in Eppendorf tubes using heparin as an anticoagulant. The mice were then sacrificed by cervical dislocation, and tissues including the brain, liver (without gallbladder), kidneys, spleen, small intestine together with the fecal content (SIWC), heart, and subcutaneous inguinal white adipose tissue were collected and weighed. For the 2 h experiment, the gallbladder with content was also (separately) collected in an Eppendorf tube and weighed. Plasma was obtained from blood samples by centrifugation at 9,000 g for 6 min at 4 °C. Tissue homogenates (except gallbladder) were obtained using the Fast Prep-24 5G homogenizer (MP Biomedicals Inc., Santa Ana, CA, United States). Before homogenization, Bovine Serum Albumin (BSA, Fraction V) was dissolved at a concentration of 2% (w/v) in distilled water. Three mL of ice-cold 2% BSA were added to liver and SIWC; 2 ml to kidneys; 1 ml to brain, spleen, and heart; and 2–3 ml to the white adipose tissue (depending on the tissue weight). For the gallbladder, 150 μL of 2% BSA was added; then, the samples were centrifuged (9,000 x g, 4°C, 6 min), and only the supernatant was collected for analysis. Both plasma and tissue samples were kept at −70°C in amber-colored Eppendorf tubes until analysis.
(§2) A volume of 50 µL human plasma sample, a 5-fold diluted mouse plasma sample (10 uL + 40 uL control human plasma), or 100 µL homogenized tissue sample were processed. […] To the 50 uL plasma samples, 20 uL of a working solution containing both internal standards at a concentration of 10 ng/ml in methanol (WIS10) was added. Sample pre-treatment involved protein precipitation with 150 uL of acetonitrile-methanol (1:1, v/v). For the tissue homogenates (100 uL sample aliquots), 40 uL of WIS10 was added, and 300 uL precipitation reagent as sample cleanup. After centrifuging the samples (10 min, 4°C, 15,000 x g), 100 µL of the supernatant was transferred to an amber-colored autosampler vial with insert. Then 100 µL of 4 mM ammonium formate pH 3.5 in water was added, and after vortex mixing, the extracts were injected (5 uL) onto a UPLC system (Acquity UPLC I-Class IVD system, Waters, Milford, MA, United States) equipped with an Acquity UPLC HSS T3 Column (150 × 2.1 mm ID, 1.8 µm). The tray temperature was set to 5 ± 3°C, and the analytical column was kept at 50°C. Gradient elution was applied using 4 mM ammonium formate pH 3.5 in water as eluent A and acetonitrile as eluent B. The flow rate was 500 μL/min, and the total runtime was 6 min. Detection was performed in the positive ion mode on a Quadrupole MS/MS detector with a Turbo Ion Spray Interface (QTRAP5500, Sciex, Framingham, MA, United States). The ionspray voltage was 2250 V, and the spray temperature was 700 °C. Gas settings, potentials, and collision energies were optimized by infusion of the analytes and by flow injection analysis.
(§3) Pharmacokinetic parameters were calculated by non-compartmental methods using the Microsoft Excel menu-driven add-in program PKsolver ([Zhang et al., 2010]). The area under the plasma concentration-time curve (AUC) was calculated with the trapezoidal rule without extrapolating to infinity. The peak plasma concentration (Cmax) and the time to reach Cmax (Tmax) were estimated from the original data. […] GraphPad Prism 9 (GraphPad Software Inc., San Diego, CA, United States) was used to plot the data and to perform statistical analysis. To determine whether the most extreme value in a data set was a significant outlier from the rest, the Grubbs’s (or extreme studentized variate) test was applied (α = 0.05). All data were log-transformed before statistical analysis. […]

[2] = Plasma pharmacokinetics over 2 h after oral ibogaine in wild-type, Oatp1a/1b-/-, Oatp1a/1b-/-;1B1tg and Oatp1a/1b-/-;1B3tg mice; type: in vivo; conditions: for Fold increase AUC0-2h: oral 10 mg/kg ibogaine; for Cmax / Tmax / AUC(0-t): female, mouse, plasma, po, 10 mg/kg; for AUC(0-t): read-out: AUC0-2h
Procedure: as §1, §2, §3

[3] = Plasma pharmacokinetics over 8 h after oral ibogaine in wild-type, Cyp3a-/- and Cyp3aXAV mice; type: in vivo; conditions: female, mouse, 10 mg/kg; for AUC(0-t): read-out: AUC0-8h
Procedure: as §1, §2, §3

[4] = Tissue distribution 2 h after oral ibogaine in wild-type, Abcg2-/- and Abcb1a/1b;Abcg2-/- mice; type: in vivo; conditions: for Kp at 2 h: mouse, po, 10 mg/kg
Procedure: as §1, §2, §3

[5] = Tissue accumulation 2 h after oral ibogaine in wild-type and Oatp1a/1b-deficient mouse strains; type: in vivo, mice; conditions: tissue concentration relative to plasma AUC0-2h, oral 10 mg/kg ibogaine
Procedure: as §1
A volume of 50 µL human plasma sample, a 5-fold diluted mouse plasma sample (10 uL + 40 uL control human plasma), or 100 µL homogenized tissue sample were processed. […] To the 50 uL plasma samples, 20 uL of a working solution containing both internal standards at a concentration of 10 ng/ml in methanol (WIS10) was added. Sample pre-treatment involved protein precipitation with 150 uL of acetonitrile-methanol (1:1, v/v). For the tissue homogenates (100 uL sample aliquots), 40 uL of WIS10 was added, and 300 uL precipitation reagent as sample cleanup. After centrifuging the samples (10 min, 4°C, 15,000 x g), 100 µL of the supernatant was transferred to an amber-colored autosampler vial with insert. […]
Pharmacokinetic parameters were calculated by non-compartmental methods using the Microsoft Excel menu-driven add-in program PKsolver ([Zhang et al., 2010]). The area under the plasma concentration-time curve (AUC) was calculated with the trapezoidal rule without extrapolating to infinity. […]

[6] = design: method as in Luz and Mash, 2021; conditions: ref Luz and Mash, 2021; cited from earlier work
[7] = design: method as in Mačiulaitis et al., 2008; conditions: in 24 h in rats; ref Mačiulaitis et al., 2008; cited from earlier work

In the case of `CCC1CC2CC3c4[nH]c5ccc(O)cc5c4CCN(C2)C13` (centres unmarked) [Noribogaine, 12-hydroxyibogamine], the “Fold increase AUC0-2h” value ([1]; Abcb1a/1b;Abcg2-/- mice vs wild-type) is reported as 1.2, the Tmax ([1]; Abcb1a/1b;Abcg2-/-) is reported as 15 min and the “Fold increase AUC0-2h” value ([1]; Abcg2-/- mice vs wild-type) is reported as 1.1. For the same compound, the Tmax ([1]; Abcg2-/-) was 15 min, the Cmax ([1]; female, Abcb1a/1b;Abcg2-/-) was 276 ± 98 ng/mL and the AUC(0-t) ([1]; female, Abcb1a/1b;Abcg2-/-) was 419 ± 126 ng·h/mL. It also gave a Cmax ([1]; female, Abcg2-/-) of 233 ± 61 ng/mL, an AUC(0-t) ([1]; female, Abcg2-/-) of 381 ± 108 ng·h/mL and a Cmax ([1]; female, wild-type) of 208 ± 70 ng/mL. For the same compound, the Tmax ([1]; female, wild-type) was 30 min, the AUC(0-t) ([1]; female, wild-type) was 339 ± 107 ng·h/mL and the “Fold increase AUC0-2h” value ([1]; wild-type mice (reference)) was 1.0. For the same compound, the “Fold increase AUC0-2h” value ([2]; Oatp1a/1b-/- mice vs wild-type) was 1.4, the “Fold increase AUC0-2h” value ([2]; Oatp1a/1b-/-;1B1tg mice vs wild-type) was 1.7 and the “Fold increase AUC0-2h” value ([2]; Oatp1a/1b-/-;1B3tg mice vs wild-type) was 1.5. The Cmax ([2]; Oatp1a/1b-/-) was 290 ± 73 ng/mL, the Tmax ([2]; Oatp1a/1b-/-) was 30 min and the AUC(0-t) ([2]; Oatp1a/1b-/-) was 458 ± 110 ng·h/mL. The Cmax ([2]; Oatp1a/1b-/-;1B1tg) was 417 ± 95 ng/mL, the Tmax ([2]; Oatp1a/1b-/-;1B1tg) was 15 min and the AUC(0-t) ([2]; Oatp1a/1b-/-;1B1tg) was 578 ± 86 ng·h/mL. It also gave a Cmax ([2]; Oatp1a/1b-/-;1B3tg) of 411 ± 107 ng/mL, a Tmax ([2]; Oatp1a/1b-/-;1B3tg) of 15 min and an AUC(0-t) ([2]; Oatp1a/1b-/-;1B3tg) of 519 ± 100 ng·h/mL. For the same compound, the Cmax ([2]; wild-type) was 209 ± 70 ng/mL, the Tmax ([2]; wild-type) was 30 min and the AUC(0-t) ([2]; wild-type) was 339 ± 107 ng·h/mL. The “Fold increase AUC0-2h” value ([2]; wild-type mice (reference)) was 1.0, the Cmax ([3]; Cyp3a-/-) was 280 ± 75 ng/mL and the Tmax ([3]; Cyp3a-/-) was 30 min. For the same compound, the AUC(0-t) ([3]; Cyp3a-/-) was 1070 ± 320 ng·h/mL, the Cmax ([3]; Cyp3aXAV) was 328 ± 75 ng/mL and the Tmax ([3]; Cyp3aXAV) was 30 min. For the same compound, the AUC(0-t) ([3]; Cyp3aXAV) was 1400 ± 320 ng·h/mL, the Cmax ([3]; wild-type) was 217 ± 37 ng/mL and the Tmax ([3]; wild-type) was 30 min. The AUC(0-t) ([3]; wild-type) was 655 ± 220 ng·h/mL, the Kp at 2 h ([4]; Abcb1a/1b;Abcg2-/-, brain, read-out: brain-to-plasma ratio) was 8.3 and the “liver-to-plasma ratios, times higher than gallbladder-to-plasma ratios” value ([4]; WT, Abcg2-/- and Abcb1a/1b;Abcg2-/- mice, 2 h after oral 10 mg/kg ibogaine) was “at least 3 times”. The “absolute brain concentrations, fold higher than those of ibogaine” value ([4]; wild-type mice, both at 2 and 8 h after oral 10 mg/kg ibogaine) was ≥ 100 fold, the Kp at 2 h ([4]; wild-type, brain, read-out: brain-to-plasma ratio) was 7.2 and the Kp at 2 h ([4]; wild-type, inguinal white adipose tissue, read-out: adipose tissue-to-plasma distribution ratio) was 2.8. For the same compound, the “fold reduction in liver accumulation” value ([5]; Oatp1a/1b-/- mice compared to WT) was 1.6 fold, the “fold reduction in liver accumulation” value ([5]; Oatp1a/1b-/-;1B1tg mice compared to WT) was 1.8 fold and the “fold reduction in liver accumulation” value ([5]; Oatp1a/1b-/-;1B3tg mice compared to WT) was 2.1 fold. For the same compound, the half-life in plasma [6] was 1440 to 1800 min and the “excreted via urine and feces, % of the administered dose” value [7] was 60–70%.
